Assay results from US9546172B2, “Pyrazolo[3,4-d]pyrimidine and pyrazolo[2,3-d]pyrimidine compounds as kinase inhibitors” (Pharmacyclics LLC, priority 2011, dated 2017).

Assays:
Assay type in all cases: biochemical
[1] = target: Lyn (Homo sapiens, UniProt P07948); assay: Lyn kinase inhibition
[2] = target: C-src (Homo sapiens, UniProt P12931); assay: C-src kinase inhibition
Protocol: (§1) Btk kinase activity was determined using a time-resolved fluorescence resonance energy transfer (TR-FRET) methodology. Measurements were performed in a reaction volume of 50 μL using 96-well assay plates. […] The reaction was quenched by the addition of 1.2 equivalents of EDTA (relative to divalent cation) in 25 μL of 1× Lance buffer (Perkin-Elmer). Streptavidin-APC (Perkin-Elmer) and Eu-labeled p-Tyr100 antibody (Perkin-Elmer) in 1× Lance buffer were added in a 25 μL volume to give final concentrations of 100 nM and 2.5 nM, respectively, and the mixture was allowed to incubate for one hour. The TR-FRET signal was measured on a multimode plate reader with an excitation wavelength (λEx) of 330 nm and detection wavelengths (λEm) of 615 and 665 nm. Activity was determined by the ratio of the fluorescence at 665 nm to that at 615 nm. For each compound, enzyme activity was measured at various concentrations of compound. Negative control reactions were performed in the absence of inhibitor in replicates of six, and two no-enzyme controls were used to determine baseline fluorescence levels Inhibition constants, Ki(app), were obtained using the program BatchKi (Kuzmic et al. (2000), Anal. Biochem. 286:45-50). IC50s were obtained according to the equation: IC50={Ki(app)/(1+[ATP]/Km^ATP)}+[E]total/2; For all kinases, [ATP]=Km^ATP, [Btk]total=0.5 nM and [Lck]total=6 nM.

[3] = target: T1, Btk (Homo sapiens, UniProt Q06187); assay: Btk in vitro inhibitory activity (one of Methods A, B, C); settings: determined in one of three in vitro assays (Examples 125-127)
T1 construct: purified from insect cells as a full-length construct containing a N-terminal 6×-His tag; 6xHis (N); host or cells: insect cells (baculovirus Sf21 in Method B)
Protocol: The Btk IC50s of compounds disclosed herein was determined in one of the three in vitro assays described in Examples 125-127.
as §1
Kinase activity is measured in vitro using electrophoretic mobility shift assay. The kinase reactions are assembled in a total volume of 25 μL in 384 well plates. […] The reaction is incubated for one hour and is quenched by the addition of 45 μL of termination buffer (100 mM HEPES, pH7.5, 0.01% Triton X-100, 30 mM EDTA). The terminated reactions are analyzed using 12 channel LabChip® 3000 microfluidic detection instrument (Caliper Life Sciences). The enzymatic phosphorylation of the peptide results in a change in net charge, enabling electrophoretic separation of product from substrate peptide. As substrate and product peptides are separated, two peaks of fluorescence are observed. Change in the relative fluorescence intensity of the substrate and product peaks is the parameter measured, reflecting enzyme activity. In the presence of an inhibitor, the ratio between product and substrate is altered: the signal of the product decreases, while the signal of the substrate increases.
Activity in each sample is determined as the product to sum ratio (PSR): P/(S+P), where P is the peak height of the product peptide and S is the peak height of the substrate peptide. For each compound, enzyme activity is measured at various concentrations (12 concentrations of compound spaced by 3× dilution intervals). Negative control samples (0%-inhibition in the absence of inhibitor) and positive control samples (100%-inhibition, in the presence of 20 mM EDTA) are assembled in replicates of four and are used to calculate %-inhibition values for each inhibitor at each concentration. Percent inhibition (Pinh) is determined using following equation: Pinh=(PSR0%−PSRinh)/(PSR0%−PSR100%)*100, where PSRinh is the product sum ratio in the presence of inhibitor, PSR0% is the average product sum ration in the absence of inhibitor and PSR100% is the average product sum ratio in 100%-inhibition control samples;
The IC50 values of inhibitors are determined by 4 parameter sigmoidal dose-response model fitting of the inhibition curves (Pinh versus inhibitor concentration) using XLfit 4 software.
Human Btk kinase (Genbank accession # NP_000052) was purified from insect cells as a full-length construct containing a N-terminal 6×-His tag. Btk kinase activity was determined using a radiometric filter binding assay. Measurements are performed in a low reaction volume 384-well assay plates. […]

[4] = target: Lck (Homo sapiens, UniProt P06239); assay: Lck kinase inhibition
Protocol: as §1

[5] = target: EGFR (Homo sapiens, UniProt P00533); assay: EGFR kinase inhibition
EGFR, sequence (P00533 25-1210): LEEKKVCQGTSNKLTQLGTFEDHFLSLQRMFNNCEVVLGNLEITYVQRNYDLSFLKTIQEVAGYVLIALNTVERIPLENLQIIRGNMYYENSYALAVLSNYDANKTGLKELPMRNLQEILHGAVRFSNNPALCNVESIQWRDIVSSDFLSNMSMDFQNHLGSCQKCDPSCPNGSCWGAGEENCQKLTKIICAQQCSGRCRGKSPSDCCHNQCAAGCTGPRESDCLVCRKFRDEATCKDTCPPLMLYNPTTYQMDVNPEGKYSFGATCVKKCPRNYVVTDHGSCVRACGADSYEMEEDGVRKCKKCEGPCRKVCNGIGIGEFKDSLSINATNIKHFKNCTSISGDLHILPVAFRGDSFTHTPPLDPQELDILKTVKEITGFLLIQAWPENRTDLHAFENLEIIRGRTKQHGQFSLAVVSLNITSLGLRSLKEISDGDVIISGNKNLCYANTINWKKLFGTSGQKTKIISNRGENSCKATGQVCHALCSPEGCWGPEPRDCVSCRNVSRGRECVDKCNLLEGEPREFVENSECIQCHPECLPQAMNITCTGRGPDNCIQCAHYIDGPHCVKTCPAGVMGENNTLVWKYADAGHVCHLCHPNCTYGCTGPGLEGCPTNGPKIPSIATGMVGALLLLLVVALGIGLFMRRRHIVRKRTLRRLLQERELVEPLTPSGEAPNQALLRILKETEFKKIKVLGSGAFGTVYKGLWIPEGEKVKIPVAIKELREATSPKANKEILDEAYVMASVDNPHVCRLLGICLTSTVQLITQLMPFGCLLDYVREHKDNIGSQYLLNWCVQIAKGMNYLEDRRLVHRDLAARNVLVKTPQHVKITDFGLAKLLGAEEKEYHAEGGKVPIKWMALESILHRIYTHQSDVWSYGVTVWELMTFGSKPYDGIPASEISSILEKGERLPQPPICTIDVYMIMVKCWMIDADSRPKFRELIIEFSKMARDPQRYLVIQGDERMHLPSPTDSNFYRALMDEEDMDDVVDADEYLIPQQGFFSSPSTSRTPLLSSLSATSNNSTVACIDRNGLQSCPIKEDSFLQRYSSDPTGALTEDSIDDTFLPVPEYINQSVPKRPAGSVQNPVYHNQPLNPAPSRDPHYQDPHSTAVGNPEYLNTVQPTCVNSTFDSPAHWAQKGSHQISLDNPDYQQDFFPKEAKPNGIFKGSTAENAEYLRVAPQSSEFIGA

T1 sequence (Q06187 whole entry): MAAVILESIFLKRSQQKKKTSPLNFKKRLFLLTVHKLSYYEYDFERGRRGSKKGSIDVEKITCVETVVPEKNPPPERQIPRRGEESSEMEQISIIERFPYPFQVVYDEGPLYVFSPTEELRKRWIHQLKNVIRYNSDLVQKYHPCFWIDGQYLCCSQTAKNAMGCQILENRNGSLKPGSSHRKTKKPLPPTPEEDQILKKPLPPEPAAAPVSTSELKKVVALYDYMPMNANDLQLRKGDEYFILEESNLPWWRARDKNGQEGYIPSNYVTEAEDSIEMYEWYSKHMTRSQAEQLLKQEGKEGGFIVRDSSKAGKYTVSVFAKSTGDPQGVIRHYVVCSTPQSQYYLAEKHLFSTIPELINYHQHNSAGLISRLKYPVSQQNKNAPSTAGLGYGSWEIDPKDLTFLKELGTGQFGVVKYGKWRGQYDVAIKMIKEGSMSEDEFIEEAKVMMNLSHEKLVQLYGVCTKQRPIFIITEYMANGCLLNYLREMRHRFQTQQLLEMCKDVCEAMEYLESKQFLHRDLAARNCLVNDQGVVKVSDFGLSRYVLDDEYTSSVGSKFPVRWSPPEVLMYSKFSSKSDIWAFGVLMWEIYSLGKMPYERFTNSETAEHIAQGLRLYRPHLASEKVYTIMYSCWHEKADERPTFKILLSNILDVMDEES
Lck, sequence (P06239 whole entry): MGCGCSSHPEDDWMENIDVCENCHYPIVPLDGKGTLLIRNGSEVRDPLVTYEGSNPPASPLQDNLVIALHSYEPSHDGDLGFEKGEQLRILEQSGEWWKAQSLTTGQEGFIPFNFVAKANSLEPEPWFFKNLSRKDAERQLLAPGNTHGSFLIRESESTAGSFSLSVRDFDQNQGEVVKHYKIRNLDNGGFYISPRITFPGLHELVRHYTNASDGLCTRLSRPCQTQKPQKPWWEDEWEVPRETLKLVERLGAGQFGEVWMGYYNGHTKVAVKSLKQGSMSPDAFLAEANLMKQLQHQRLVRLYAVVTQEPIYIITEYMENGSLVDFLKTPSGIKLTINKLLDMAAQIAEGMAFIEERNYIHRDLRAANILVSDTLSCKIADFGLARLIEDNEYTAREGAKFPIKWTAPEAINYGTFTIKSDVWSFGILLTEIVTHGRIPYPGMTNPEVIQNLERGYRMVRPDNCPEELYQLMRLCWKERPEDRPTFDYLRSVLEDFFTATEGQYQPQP
Lyn, sequence (P07948 whole entry): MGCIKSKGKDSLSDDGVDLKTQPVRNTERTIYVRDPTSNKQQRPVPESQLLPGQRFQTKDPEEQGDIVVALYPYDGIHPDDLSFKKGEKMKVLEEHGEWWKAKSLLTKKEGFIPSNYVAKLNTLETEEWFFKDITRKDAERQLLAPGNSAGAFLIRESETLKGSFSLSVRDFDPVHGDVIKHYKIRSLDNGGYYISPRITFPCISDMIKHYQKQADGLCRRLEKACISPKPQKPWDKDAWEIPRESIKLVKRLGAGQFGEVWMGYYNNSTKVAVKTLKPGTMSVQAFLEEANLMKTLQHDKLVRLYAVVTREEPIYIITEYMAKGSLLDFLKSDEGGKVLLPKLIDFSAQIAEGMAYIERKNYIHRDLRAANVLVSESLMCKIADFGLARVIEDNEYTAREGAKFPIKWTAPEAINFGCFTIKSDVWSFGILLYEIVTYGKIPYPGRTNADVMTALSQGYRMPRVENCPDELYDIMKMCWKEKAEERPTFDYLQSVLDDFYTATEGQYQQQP
C-src, sequence (P12931 whole entry): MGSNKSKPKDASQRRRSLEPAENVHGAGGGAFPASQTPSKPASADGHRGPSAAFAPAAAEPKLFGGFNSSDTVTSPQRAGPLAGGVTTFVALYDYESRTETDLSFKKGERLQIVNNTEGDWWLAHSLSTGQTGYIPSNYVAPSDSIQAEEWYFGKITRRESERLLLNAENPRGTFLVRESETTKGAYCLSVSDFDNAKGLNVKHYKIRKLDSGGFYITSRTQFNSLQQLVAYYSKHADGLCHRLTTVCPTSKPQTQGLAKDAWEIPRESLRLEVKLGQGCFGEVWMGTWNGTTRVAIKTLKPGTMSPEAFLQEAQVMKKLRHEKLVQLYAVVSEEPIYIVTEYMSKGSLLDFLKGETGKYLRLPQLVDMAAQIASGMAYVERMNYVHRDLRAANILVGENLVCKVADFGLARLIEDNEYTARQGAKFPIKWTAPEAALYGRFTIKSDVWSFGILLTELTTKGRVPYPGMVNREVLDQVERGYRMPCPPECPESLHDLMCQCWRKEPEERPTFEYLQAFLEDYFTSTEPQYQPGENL

COc1cc(-c2nn(-c3ccc(N(C)C(=O)/C=C/CN(C)C)cc3)c3ncnc(N)c23)ccc1C [Example 15, (E)-N-(4-(4-amino-3-(3-methoxy-4-methylphenyl)-1H-pyrazolo[3,4-d]pyrimidin-1-yl)phenyl)-4-(dimethylamino)-N-methylbut-2-enamide]
IC50 [1]: < 100 nM
IC50 [2]: < 100 nM
IC50 [3]: < 100 nM
IC50 [4]: < 100 nM
IC50 [5]: 100 to 1000 nM

C=CC(=O)N(C)c1ccc(-n2nc(-c3ccc(C)c(OC)c3)c3c(N)ncnc32)cc1 [Example 18, N-(4-(4-amino-3-(3-methoxy-4-methylphenyl)-1H-pyrazolo[3,4-d]pyrimidin-1-yl)phenyl)-N-methylacrylamide]
IC50 [1]: 100 to 1000 nM
IC50 [2]: < 100 nM
IC50 [3]: < 100 nM
IC50 [4]: < 100 nM
IC50 [5]: < 100 nM

C=CC(=O)Nc1ccc(-n2nc(-c3ccc(Cl)cc3)c3c(N)ncnc32)cc1 [Example 19, N-(4-(4-amino-3-(4-chlorophenyl)-1H-pyrazolo[3,4-d]pyrimidin-1-yl)phenyl)acrylamide]
IC50 [1]: < 100 nM
IC50 [2]: < 100 nM
IC50 [3]: < 100 nM
IC50 [4]: < 100 nM
IC50 [5]: < 100 nM

C=CC(=O)Nc1ccc(-n2nc(-c3ccc(Cl)c(Cl)c3)c3c(N)ncnc32)cc1 [Example 20, N-(4-(4-amino-3-(3,4-dichlorophenyl)-1H-pyrazolo[3,4-d]pyrimidin-1-yl)phenyl)acrylamide]
IC50 [1]: 100 to 1000 nM
IC50 [2]: < 100 nM
IC50 [3]: < 100 nM
IC50 [4]: 100 to 1000 nM

C=CC(=O)N(C)c1cccc(-n2nc(-c3ccc(Cl)cc3)c3c(N)ncnc32)c1 [Example 22, N-(3-(4-amino-3-(4-chlorophenyl)-1H-pyrazolo[3,4-d]pyrimidin-1-yl)phenyl)-N-methylacrylamide]
IC50 [1]: > 1000 nM
IC50 [2]: 100 to 1000 nM
IC50 [3]: < 100 nM
IC50 [4]: > 1000 nM
IC50 [5]: < 100 nM

CN(C/C=C/C(=O)Nc1cccc(-n2nc(-c3ccc(Cl)cc3)c3c(N)ncnc32)c1)C1CC1 [Example 26, (E)-N-(3-(4-amino-3-(4-chlorophenyl)-1H-pyrazolo[3,4-d]pyrimidin-1-yl)phenyl)-4-(cyclopropyl(methyl)amino)but-2-enamide]
IC50 [1]: 100 to 1000 nM
IC50 [2]: 100 to 1000 nM
IC50 [3]: < 100 nM
IC50 [4]: 100 to 1000 nM

CN(C)C/C=C/C(=O)N(C)c1ccc(-n2nc(-c3ccc(Cl)cc3)c3c(N)ncnc32)nc1 [Example 28, (E)-N-(6-(4-amino-3-(4-chlorophenyl)-1H-pyrazolo[3,4-d]pyrimidin-1-yl)pyridin-3-yl)-4-(dimethylamino)-N-methylbut-2-enamide]
IC50 [1]: > 1000 nM
IC50 [2]: 100 to 1000 nM
IC50 [3]: < 100 nM
IC50 [4]: 100 to 1000 nM
IC50 [5]: > 1000 nM

COc1cc(-c2nn(-c3ccc(N(C)C(=O)/C=C/CN(C)C)cn3)c3ncnc(N)c23)ccc1C [Example 29, (E)-N-(6-(4-amino-3-(3-methoxy-4-methylphenyl)-1H-pyrazolo[3,4-d]pyrimidin-1-yl)pyridin-3-yl)-4-(dimethylamino)-N-methylbut-2-enamide]
IC50 [1]: 100 to 1000 nM
IC50 [2]: < 100 nM
IC50 [3]: < 100 nM
IC50 [4]: 100 to 1000 nM
IC50 [5]: > 1000 nM
